Test results taken from US20200262877A1, “ION CHANNEL-BINDING PEPTIDES AND METHODS OF USE THEREOF” (priority 2017, published 2020).
Like-named read-outs stand apart in the source and are kept apart here. Where a SMILES comes first, the peptide text is derived from it. Bridges are numbered along the chain shown (N, C = ends).

How the values were obtained:
Kv1.3 [1] = target: T1, Kv1.3 (Homo sapiens, UniProt P22001); assay: cell-based; format: cell-based; settings: for activity at 20 µM: peptide at 20 μM
T1 construct: host or cells: HEK293 or CHO
Summary of the method: (§1)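 Peptides were tested in duplicate at final 20 μM and 200 nM, with concentration set by amino acid analysis, in HEPES-buffered saline. They were applied for at least 5 min to HEK293 or CHO cells transfected with each channel. Currents were expressed as % inhibition, 1-(Ipeptide/Icontrol)×100, or % activation, Ipeptide/Icontrol×100, against a channel-matched reference compound.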

Kv1.3 [2] = target: T1, Kv1.3; settings: prior reports; cited from earlier work
panel of 20 ion channels = format: cell-based; settings: potassium channels of the panel; 0.2 or 20 μM; FIG. 2
Experimental: This example describes a method for assaying ion channel activity in cells.
Peptides were screened in duplicate at final concentrations of 20 μM and 200 nM, as determined by amino acid analysis, and diluted into HEPES buffered physiological saline (HBPS). HEK293 or CHO cells from the American Type Culture Collection (ATCC) were transfected with the appropriate ion channel before use. HEK293 cells were grown in Dulbecco's Modified Eagle Medium/Nutrient Mixture F-12, and CHO cells were cultured in Ham's F-12 media. All cultures were supplemented with 10% fetal bovine serum, 100 U/ml penicillin G, 100 μg/ml streptomycin sulfate, and the appropriate selection antibiotics. Prior to use, cells were washed twice with Hank's Balanced Salt Solution, and treated with Accutase cell detachment solution (Sigma-Aldrich). Cells were then washed. Peptides and controls were incubated with cells for at least five minutes.
Percent inhibition was defined as: (1-(Ipeptide/Icontrol))×100%).
Percent values were calculated using the following formula: % activation=(IPeptide/Icontrol)×100%, where IPeptide is the current produced by co-application a peptide with agonist, and Icontrol refers to the current produced by stimulation in control. Control used for each ion channel is the reference compound matched to a particular channel, as illustrated in TABLE 10 below.

Kv1.1 = target: T2, Kv1.1 (Homo sapiens, UniProt Q09470); assay: cell-based; format: cell-based; settings: Kv1.1; peptide at 20 μM; percentage of control, 100% = no change; read-out: Ion channel activity (ion channel inhibition)
T2 construct: host or cells: HEK293 or CHO
Summary of the method: as §1

[3] = target: T3, Nav1.5 cardiac sodium channel (human SCN5A gene) (Homo sapiens, UniProt Q14524); assay: in vitro
[4] = target: T3, Nav1.5 cardiac sodium channel (human SCN5A gene); assay: cell-based
[5] = target: Nav1.7 sodium channel (human SCN9A gene) (Homo sapiens, UniProt Q15858); assay: cell-based; set-up: expressed in transfected cells; host or cells: CHO cells; settings: human Nav1.7 in CHO cells
[6] = target: Nav1.4 sodium channel (human SCN4A gene) (Homo sapiens, UniProt P35499); assay: cell-based; set-up: host or cells: CHO; settings: human Nav1.4 in CHO cells
[7] = target: Nav1.3 sodium channel (human SCN3A gene) (Homo sapiens, UniProt Q9NY46); assay: cell-based; set-up: host or cells: CHO; settings: human Nav1.3 in CHO cells
Nav1.7 = target: T4, Nav1.7 (Homo sapiens, UniProt Q15858); assay: cell-based; format: cell-based; settings: 0.2 or 20 μM; FIG. 2
T4 construct: host or cells: HEK293 or CHO

[8] = target: Kv1.3 potassium channel (human KCNA3 gene) (Homo sapiens, UniProt P22001); assay: cell-based; set-up: host or cells: CHO; settings: human Kv1.3 in CHO cells
[9] = target: Kv1.5 potassium channel (human KCNA5 gene) (Homo sapiens, UniProt P22460); assay: cell-based; set-up: host or cells: CHO; settings: human Kv1.5 in CHO cells
hERG = hERG (Homo sapiens, UniProt Q12809); assay: in vitro; settings: 0.2 or 20 μM; FIG. 2
Summary of the method: as §1

[10] = target: T3, Nav1.5 cardiac sodium channel (human SCN5A gene); settings: read-out: IC50 Nav1.5 ion channel inhibition, TP2; human Nav1.5 in CHO cells; TP2 (inactivated state inhibition)
[11] = Kv1.3, percentage of control, 100% = no change, read-out: Ion channel activity (ion channel inhibition)

T3 sequence (Q14524 whole entry): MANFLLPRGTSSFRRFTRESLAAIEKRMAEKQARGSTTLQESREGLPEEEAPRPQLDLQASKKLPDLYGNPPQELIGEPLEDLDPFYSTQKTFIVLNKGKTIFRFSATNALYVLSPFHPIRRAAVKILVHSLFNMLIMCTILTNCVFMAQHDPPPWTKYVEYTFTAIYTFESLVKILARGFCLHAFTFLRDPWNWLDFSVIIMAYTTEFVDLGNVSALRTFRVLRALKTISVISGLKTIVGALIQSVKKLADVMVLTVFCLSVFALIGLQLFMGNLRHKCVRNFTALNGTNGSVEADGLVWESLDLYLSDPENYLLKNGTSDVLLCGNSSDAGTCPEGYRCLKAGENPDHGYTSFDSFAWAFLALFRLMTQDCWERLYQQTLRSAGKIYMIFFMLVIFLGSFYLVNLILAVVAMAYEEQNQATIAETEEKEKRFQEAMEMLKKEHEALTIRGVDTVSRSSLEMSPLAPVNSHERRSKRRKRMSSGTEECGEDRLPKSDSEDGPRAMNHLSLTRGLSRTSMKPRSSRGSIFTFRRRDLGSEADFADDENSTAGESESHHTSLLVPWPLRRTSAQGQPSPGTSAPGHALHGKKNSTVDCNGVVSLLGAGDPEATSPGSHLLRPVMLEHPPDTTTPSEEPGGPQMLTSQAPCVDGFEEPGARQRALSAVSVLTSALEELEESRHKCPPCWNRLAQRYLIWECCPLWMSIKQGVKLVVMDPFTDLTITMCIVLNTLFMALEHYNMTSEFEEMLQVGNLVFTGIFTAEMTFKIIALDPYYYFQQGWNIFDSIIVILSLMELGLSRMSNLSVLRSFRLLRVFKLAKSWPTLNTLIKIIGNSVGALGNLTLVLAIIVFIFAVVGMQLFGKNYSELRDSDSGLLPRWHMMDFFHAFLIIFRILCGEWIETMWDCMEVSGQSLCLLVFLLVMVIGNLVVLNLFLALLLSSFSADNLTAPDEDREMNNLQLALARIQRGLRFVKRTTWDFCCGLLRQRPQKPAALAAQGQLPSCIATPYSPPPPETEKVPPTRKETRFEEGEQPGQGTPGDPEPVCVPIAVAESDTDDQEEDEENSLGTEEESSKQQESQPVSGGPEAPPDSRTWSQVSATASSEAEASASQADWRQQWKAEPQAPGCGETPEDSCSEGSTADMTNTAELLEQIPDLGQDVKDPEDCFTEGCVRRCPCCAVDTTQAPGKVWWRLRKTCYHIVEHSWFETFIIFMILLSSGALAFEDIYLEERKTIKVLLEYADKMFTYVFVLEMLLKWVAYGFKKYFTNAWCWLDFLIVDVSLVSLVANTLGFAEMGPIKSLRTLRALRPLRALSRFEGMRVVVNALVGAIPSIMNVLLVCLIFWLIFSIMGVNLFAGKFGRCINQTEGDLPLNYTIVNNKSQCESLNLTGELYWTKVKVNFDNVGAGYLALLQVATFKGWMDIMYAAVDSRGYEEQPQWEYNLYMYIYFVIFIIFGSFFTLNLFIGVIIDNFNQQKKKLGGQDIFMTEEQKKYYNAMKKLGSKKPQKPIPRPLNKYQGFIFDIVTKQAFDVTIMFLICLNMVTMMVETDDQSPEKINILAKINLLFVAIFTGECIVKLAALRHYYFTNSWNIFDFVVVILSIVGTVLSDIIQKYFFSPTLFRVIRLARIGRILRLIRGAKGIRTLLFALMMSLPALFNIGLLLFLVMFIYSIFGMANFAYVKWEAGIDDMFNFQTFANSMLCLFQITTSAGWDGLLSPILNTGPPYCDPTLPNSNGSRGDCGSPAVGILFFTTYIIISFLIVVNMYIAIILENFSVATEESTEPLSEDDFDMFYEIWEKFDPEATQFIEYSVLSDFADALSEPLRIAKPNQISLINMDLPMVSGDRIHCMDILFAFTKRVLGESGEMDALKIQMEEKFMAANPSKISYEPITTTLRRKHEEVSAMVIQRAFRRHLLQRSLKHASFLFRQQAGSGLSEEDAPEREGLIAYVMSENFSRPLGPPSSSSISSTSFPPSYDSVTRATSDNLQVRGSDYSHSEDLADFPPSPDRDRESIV
T1 sequence (P22001 whole entry): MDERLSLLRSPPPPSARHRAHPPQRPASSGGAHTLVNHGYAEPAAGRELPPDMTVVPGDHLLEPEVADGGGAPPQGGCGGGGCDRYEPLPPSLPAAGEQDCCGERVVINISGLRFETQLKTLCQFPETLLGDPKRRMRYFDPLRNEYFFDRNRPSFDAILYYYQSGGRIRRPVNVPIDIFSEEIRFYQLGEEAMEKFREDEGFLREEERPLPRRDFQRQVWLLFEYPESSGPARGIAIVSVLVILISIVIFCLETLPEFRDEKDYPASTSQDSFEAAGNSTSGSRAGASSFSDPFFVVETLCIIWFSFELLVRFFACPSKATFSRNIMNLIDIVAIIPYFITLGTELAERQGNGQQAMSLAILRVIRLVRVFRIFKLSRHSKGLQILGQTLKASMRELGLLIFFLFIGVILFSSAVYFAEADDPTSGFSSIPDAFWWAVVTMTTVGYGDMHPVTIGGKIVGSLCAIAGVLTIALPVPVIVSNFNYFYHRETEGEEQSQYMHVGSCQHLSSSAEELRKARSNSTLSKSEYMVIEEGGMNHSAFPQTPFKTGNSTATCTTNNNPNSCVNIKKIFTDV
Sequence of Nav1.4 sodium channel (human SCN4A gene) (P35499 whole entry): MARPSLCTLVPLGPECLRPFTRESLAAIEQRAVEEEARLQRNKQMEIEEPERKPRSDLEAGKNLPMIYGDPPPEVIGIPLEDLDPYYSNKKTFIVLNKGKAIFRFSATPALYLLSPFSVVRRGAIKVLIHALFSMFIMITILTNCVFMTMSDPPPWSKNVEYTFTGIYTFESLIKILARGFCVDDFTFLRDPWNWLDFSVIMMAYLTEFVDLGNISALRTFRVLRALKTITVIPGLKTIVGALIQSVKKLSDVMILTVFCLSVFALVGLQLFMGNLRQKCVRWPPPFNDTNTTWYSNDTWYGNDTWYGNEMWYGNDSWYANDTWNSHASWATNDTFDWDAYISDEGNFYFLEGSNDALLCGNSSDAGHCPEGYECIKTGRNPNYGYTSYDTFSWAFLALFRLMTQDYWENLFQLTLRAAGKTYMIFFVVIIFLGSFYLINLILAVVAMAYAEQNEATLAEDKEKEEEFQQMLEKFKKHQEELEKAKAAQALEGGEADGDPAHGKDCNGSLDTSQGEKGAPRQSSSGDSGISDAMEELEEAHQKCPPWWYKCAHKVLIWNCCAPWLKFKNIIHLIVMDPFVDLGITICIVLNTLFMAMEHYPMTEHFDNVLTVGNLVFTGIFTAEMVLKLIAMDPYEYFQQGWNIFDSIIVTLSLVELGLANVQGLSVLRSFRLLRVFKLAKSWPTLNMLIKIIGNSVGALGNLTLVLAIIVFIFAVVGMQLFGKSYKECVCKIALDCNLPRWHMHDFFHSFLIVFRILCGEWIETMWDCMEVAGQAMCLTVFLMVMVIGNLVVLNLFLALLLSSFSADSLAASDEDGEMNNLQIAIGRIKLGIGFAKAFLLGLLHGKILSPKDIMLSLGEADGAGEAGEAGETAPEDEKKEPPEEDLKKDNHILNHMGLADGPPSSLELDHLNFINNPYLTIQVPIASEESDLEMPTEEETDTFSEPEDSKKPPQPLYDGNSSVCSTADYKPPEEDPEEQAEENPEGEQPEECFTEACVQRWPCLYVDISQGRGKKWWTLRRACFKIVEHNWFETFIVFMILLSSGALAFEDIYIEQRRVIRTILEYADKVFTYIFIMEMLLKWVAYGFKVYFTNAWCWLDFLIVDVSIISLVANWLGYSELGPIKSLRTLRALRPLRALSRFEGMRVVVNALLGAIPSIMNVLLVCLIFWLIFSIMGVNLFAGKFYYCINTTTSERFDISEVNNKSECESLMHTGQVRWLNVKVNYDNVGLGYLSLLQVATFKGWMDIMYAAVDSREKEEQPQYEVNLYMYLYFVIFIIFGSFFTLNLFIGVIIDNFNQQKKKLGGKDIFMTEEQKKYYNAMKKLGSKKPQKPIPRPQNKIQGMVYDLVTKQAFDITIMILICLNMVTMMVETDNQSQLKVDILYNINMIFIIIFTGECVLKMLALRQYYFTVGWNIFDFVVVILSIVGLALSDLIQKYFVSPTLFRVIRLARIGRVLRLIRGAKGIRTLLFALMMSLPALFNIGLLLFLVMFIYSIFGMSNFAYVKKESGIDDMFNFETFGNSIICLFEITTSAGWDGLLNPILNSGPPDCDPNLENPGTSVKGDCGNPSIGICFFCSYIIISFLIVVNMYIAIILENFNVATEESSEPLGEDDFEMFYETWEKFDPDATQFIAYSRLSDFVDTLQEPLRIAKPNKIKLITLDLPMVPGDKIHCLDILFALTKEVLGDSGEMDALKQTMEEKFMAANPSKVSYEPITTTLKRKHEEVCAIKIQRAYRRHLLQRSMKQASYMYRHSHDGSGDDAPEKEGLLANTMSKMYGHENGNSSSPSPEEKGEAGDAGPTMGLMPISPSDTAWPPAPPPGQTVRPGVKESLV
Sequence of Kv1.5 potassium channel (human KCNA5 gene) (P22460 whole entry): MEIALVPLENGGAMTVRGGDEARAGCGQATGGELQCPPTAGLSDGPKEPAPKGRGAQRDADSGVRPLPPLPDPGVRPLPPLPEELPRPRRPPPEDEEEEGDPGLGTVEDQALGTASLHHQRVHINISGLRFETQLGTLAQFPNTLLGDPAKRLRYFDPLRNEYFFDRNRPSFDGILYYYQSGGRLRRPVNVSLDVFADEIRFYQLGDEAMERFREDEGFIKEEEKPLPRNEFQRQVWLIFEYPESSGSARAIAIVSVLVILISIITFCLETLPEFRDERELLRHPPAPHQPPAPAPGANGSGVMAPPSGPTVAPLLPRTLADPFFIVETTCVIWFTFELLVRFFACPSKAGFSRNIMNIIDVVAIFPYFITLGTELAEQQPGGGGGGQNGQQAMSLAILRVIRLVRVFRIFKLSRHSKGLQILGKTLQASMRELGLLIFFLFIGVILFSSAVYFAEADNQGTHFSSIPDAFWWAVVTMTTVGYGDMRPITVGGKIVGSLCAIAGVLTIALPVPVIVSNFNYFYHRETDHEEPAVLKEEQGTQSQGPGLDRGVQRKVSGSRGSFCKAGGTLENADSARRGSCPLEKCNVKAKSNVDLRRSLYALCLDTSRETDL
Sequence of Kv1.3 potassium channel (human KCNA3 gene) (P22001 whole entry): as the sequence (P22001 whole entry) above

GSNFKVEGACSKPCRKYCIDKGARNGKCINGRCHCYY [SEQ ID NO: 12]
Kv1.3 inhibition (Kv1.3 [1]; 0.2 or 20 μM, FIG. 2): inhibit Kv1.3, consistent with these results | Kv1.3 inhibition, previously reported (Kv1.3 [2]): previously reported to inhibit Kv1.3

CC[C@H](C)[C@H](NC(=O)[C@H](CCCNC(=N)N)NC(=O)[C@@H](NC(=O)[C@H](CO)NC(=O)CN)C(C)C)C(=O)N1CCC[C@H]1C(=O)N[C@H](C(=O)N[C@@H](CO)C(=O)N[C@H]1CSSC[C@@H]2NC(=O)[C@H](CCCCN)NC(=O)CNC(=O)[C@H](Cc3ccccc3)NC(=O)[C@H](CCCNC(=N)N)NC(=O)[C@H](CCSC)NC(=O)CNC(=O)[C@H](C)NC(=O)[C@H](CC(=O)O)NC(=O)[C@H](CCCCN)NC(=O)[C@@H]3CSSC[C@@H](C(=O)N[C@H](C(=O)N4CCC[C@H]4C(=O)N[C@@H](CCCCN)C(=O)O)[C@@H](C)O)NC(=O)[C@H](CC(=O)O)NC(=O)[C@H](CSSC[C@H](NC(=O)[C@H](CCC(N)=O)NC(=O)CNC(=O)[C@H](CO)NC(=O)[C@H](Cc4c[nH]cn4)NC(=O)[C@H](CCCCN)NC1=O)C(=O)N[C@@H](CC(C)C)C(=O)N[C@@H](CCCCN)C(=O)N1CCC[C@H]1C(=O)N3)NC(=O)[C@H](CCCCN)NC(=O)CNC(=O)[C@H](CC(N)=O)NC(=O)[C@H](CCSC)NC2=O)C(C)C [SEQ ID NO: 6] (H-GSVRIPVSCKHSGQCLKPCKDAGMRFGKCMNGKCDCTPK-OH; disulfide 9-29, 15-34, 19-36)
Activity on potassium channels (panel of 20 ion channels): active on a subset of potassium channels | activity at 0.2 µM (Kv1.3 [1]; Kv1.3, peptide at 0.2 μM, percentage of control, 100% = no change, read-out: Ion channel activity (ion channel inhibition)): < 80% | activity at 20 µM (Kv1.3 [1]; [11]): < 50% | activity at 20 µM (Kv1.1): < 50% | IC50 [3]: > 1000 nM

CC[C@H](C)[C@@H]1NC(=O)[C@@H]2CSSC[C@H](NC(=O)[C@H](CCCCN)NC(=O)[C@@H](NC(=O)[C@H](CC(N)=O)NC(=O)[C@@H](NC(=O)[C@@H]3CCCN3C(=O)[C@@H](NC(=O)CNC(=O)[C@H](CO)NC(=O)CN)C(C)C)[C@@H](C)CC)C(C)C)C(=O)N[C@@H](CCCNC(=N)N)C(=O)NCC(=O)N[C@@H](CO)C(=O)N[C@@H](CCCNC(=N)N)C(=O)N[C@@H](CC(=O)O)C(=O)N[C@H]3CSSC[C@H](NC(=O)[C@H](CCCCN)NC(=O)[C@H](CO)NC(=O)[C@H](CC(N)=O)NC1=O)C(=O)N[C@@H](Cc1c[nH]cn1)C(=O)N[C@H](C(=O)N[C@H](C(=O)N1CCC[C@H]1C(=O)O)[C@@H](C)O)CSSC[C@H](NC(=O)[C@@H]1CCCN1C(=O)[C@H](CC(=O)O)NC(=O)[C@H](CC(C)C)NC3=O)C(=O)N[C@@H](CCCCN)C(=O)N[C@@H](CCCCN)C(=O)N[C@@H](C)C(=O)NCC(=O)N[C@@H](CCSC)C(=O)N[C@@H](CCCNC(=N)N)C(=O)N[C@@H](Cc1ccccc1)C(=O)NCC(=O)N[C@@H](CCCCN)C(=O)N2 [SEQ ID NO: 5] (H-GSGVPINVKCRGSRDCLDPCKKAGMRFGKCINSKCHCTP-OH; disulfide 10-30, 16-35, 20-37)
IC50 [4]: > 1000 nM | Activity on potassium channels (panel of 20 ion channels): active on a subset of potassium channels | IC50 ([5]; TP1 (tonic inhibition), read-out: IC50 Nav1.7 ion channel inhibition, TP1): > 1000 nM | IC50 ([5]; TP2 (inactivated state inhibition), read-out: IC50 Nav1.7 ion channel inhibition, TP2): > 1000 nM | IC50 ([6]; TP1 (tonic inhibition), read-out: IC50 Nav1.4 ion channel inhibition, TP1): > 1000 nM | IC50 ([6]; TP2 (inactivated state inhibition), read-out: IC50 Nav1.4 ion channel inhibition, TP2): > 1000 nM | activity at 20 µM (Kv1.3 [1]; [11]): < 50% | IC50 ([7]; TP1 (tonic inhibition), read-out: IC50 Nav1.3 ion channel inhibition, TP1): > 1000 nM | IC50 ([7]; TP2 (inactivated state inhibition), read-out: IC50 Nav1.3 ion channel inhibition, TP2): > 1000 nM | Activity against Nav1.7 channels (Nav1.7): showed additional activity | IC50 ([8]; test pulse TP1, read-out: IC50 Kv1.3 ion channel inhibition, TP1): > 1000 nM | IC50 ([8]; test pulse TP6, read-out: IC50 Kv1.3 ion channel inhibition, TP6): > 1000 nM | IC50 ([9]; test pulse TP1, read-out: IC50 Kv1.5 ion channel inhibition, TP1): > 1000 nM | IC50 ([9]; test pulse TP6, read-out: IC50 Kv1.5 ion channel inhibition, TP6): > 1000 nM | Activity against / inhibition of hERG (Kv11.1) (hERG): showed additional activity | IC50 [10]: > 1000 nM
